test system: H3K27 methylation in G401 cell; experiment: ELISA (H3K27 methylation) assay; format: cell-based; conditions: Homo sapiens, G-401; ELISA Qualified assay (H3K27 methylation); read-out: (c) IC50 (μM), ELISA Qualified
Description: ELISA (H3K27 Methylation) Assay

SMILES	IC50
CN(C)c1cc(F)c(-c2cnc(NCc3cccc4c3CCO4)n3cnnc23)cn1 [Example 112, N-((2,3-dihydrobenzofuran-4-yl)methyl)-8-(6-(dimethylamino)-4-fluoropyridin-3-yl)-[1,2,4]triazolo[4,3-c]pyrimidin-5-amine]	0.389 µM
Fc1ccc2c(c1CNc1ncc(-c3cncnc3C(F)F)c3nncn13)CCO2 [Example 191, 8-(4-(difluoromethyl)pyrimidin-5-yl)-N-((5-fluoro-2,3-dihydrobenzofuran-4-yl)methyl)-[1,2,4]triazolo[4,3-c]pyrimidin-5-amine]	0.0344 µM
Cc1nn(C)c(C)c1-c1cnc(NCc2c(F)ccc3c2CCO3)n2cnnc12 [Example 132, N-((5-fluoro-2,3-dihydrobenzofuran-4-yl)methyl)-8-(1,3,5-trimethyl-1H-pyrazol-4-yl)-[1,2,4]triazolo[4,3-c]pyrimidin-5-amine]	0.0077 µM
CN1CCN(c2ccc(-c3cnc(NCc4cccc5c4CCO5)n4cnnc34)cn2)CC1 [Example 20, N-((2,3-dihydrobenzofuran-4-yl)methyl)-8-(6-(4-methylpiperazin-1-yl)pyridin-3-yl)-[1,2,4]triazolo[4,3-c]pyrimidin-5-amine]	0.0783 µM
Cc1nn(C[C@@H](C)O)c(C)c1-c1cnc(NCc2c(F)ccc3c2CCO3)n2cnnc12 [Example 186, (2R)-1-(4-(5-(((5-fluoro-2,3-dihydrobenzofuran-4-yl)methyl)amino)-[1,2,4]triazolo[4,3-c]pyrimidin-8-yl)-3,5-dimethyl-1H-pyrazol-1-yl)propan-2-ol]	0.0068 µM
CN(C)CCc1cccc(-c2cnc(NCc3cccc4c3CCO4)n3cnnc23)c1 [Example 89, N-((2,3-dihydrobenzofuran-4-yl)methyl)-8-(3-(2-(dimethylamino)ethyl)phenyl)-[1,2,4]triazolo[4,3-c]pyrimidin-5-amine]	0.101 µM
CCc1ccc(-c2cnc(NCc3c(F)ccc4c3CCO4)n3cnnc23)c(C)n1 [Example 229, 8-(6-ethyl-2-methylpyridin-3-yl)-N-((5-fluoro-2,3-dihydrobenzofuran-4-yl)methyl)-[1,2,4]triazolo[4,3-c]pyrimidin-5-amine]	0.0027 µM
Cc1cc(-c2cnc(NCc3cccc4c3CCO4)n3cnnc23)cnc1N1CCOCC1 [Example 73, N-((2,3-dihydrobenzofuran-4-yl)methyl)-8-(5-methyl-6-morpholinopyridin-3-yl)-[1,2,4]triazolo[4,3-c]pyrimidin-5-amine]	0.332 µM
Cc1noc(C)c1-c1cnc(NCc2cccc3c2CCO3)n2cnnc12 [Example 59, N-((2,3-dihydrobenzofuran-4-yl)methyl)-8-(3,5-dimethylisoxazol-4-yl)-[1,2,4]triazolo[4,3-c]pyrimidin-5-amine]	0.086 µM
Cc1cnc(C(F)F)cc1-c1cnc(NCc2c(F)ccc3c2CCO3)n2cnnc12 [Example 198, 8-(2-(difluoromethyl)-5-methylpyridin-4-yl)-N-((5-fluoro-2,3-dihydrobenzofuran-4-yl)methyl)-[1,2,4]triazolo[4,3-c]pyrimidin-5-amine]	0.0078 µM
OCCn1cc(-c2cnc(NCc3cccc4c3CCO4)n3cnnc23)cn1 [Example 34, 2-(4-(5-(((2,3-dihydrobenzofuran-4-yl)methyl)amino)-[1,2,4]trizaolo[4,3-c]pyrimidin-8-yl)-1H-pyrazol-1-yl)ethanol]	1.95 µM
Cc1cc(-c2cnc(NCc3cccc4c3CCO4)n3cnnc23)ccc1C(=O)N(C)C [Example 49, 4-(5-(((2,3-dihydrobenzofuran-4-yl)methyl)amino)-[1,2,4]triazolo[4,3-c]pyrimidin-8-yl)-N,N,2-trimethylbenzamide]	0.366 µM
O=C(c1ccc(-c2cnc(NCc3c(F)ccc4c3CCO4)n3cnnc23)cn1)N1CCCC1 [Example 129, (5-(5-(((5-fluoro-2,3-dihydrobenzofuran-4-yl)methyl)amino)-[1,2,4]triazolo[4,3-c]pyrimidin-8-yl)pyridin-2-yl)(pyrrolidin-l-yl)methanone]	0.0019 µM
CN(C)Cc1ccc(-c2cnc(NCc3cccc4c3CCO4)n3cnnc23)cc1 [Example 11, N-((2,3-dihydrobenzofuran-4-yl)methyl)-8-(4-((dimethylamino)methyl)phenyl)-[1,2,4]triazolo[4,3-c]pyrimidin-5-amine]	0.0144 µM
Cc1cc(-c2cnc(NCc3cccc4c3CCO4)n3cnnc23)cnc1S(C)(=O)=O [Example 70, N-((2,3-dihydrobenzofuran-4-yl)methyl)-8-(5-methyl-6-(methylsulfonyl)pyridin-3-yl)-[1,2,4]triazolo[4,3-c]pyrimidin-5-amine]	0.0839 µM
N#Cc1ccc(-c2cnc(NCc3c(F)ccc4c3CCO4)n3cnnc23)cn1 [Example 93, 5-(5-(((5-fluoro-2,3-dihydrobenzofuran-4-yl)methyl)amino)-[1,2,4]triazolo[4,3-c]pyrimidin-8-yl)picolinonitrile]	0.0241 µM
COc1cc(Cl)c(-c2cnc(NCc3c(F)ccc4c3CCO4)n3cnnc23)cn1 [Example 138, 8-(4-chloro-6-methoxypyridin-3-yl)-N-((5-fluoro-2,3-dihydrobenzofuran-4-yl)methyl)-[1,2,4]triazolo[4,3-c]pyrimidin-5-amine]	0.0072 µM
Cc1nn(C(C)C)c(C)c1-c1cnc(NCc2c(F)ccc3c2CCO3)n2cnnc12 [Example 151, N-((5-fluoro-2,3-dihydrobenzofuran-4-yl)methyl)-8-(1-isopropyl-3,5-dimethyl-1H-pyrazol-4-yl)-[1,2,4]triazolo[4,3-c]pyrimidin-5-amine]	0.0086 µM
Fc1ccncc1-c1cnc(NCc2cccc3c2CCO3)n2cnnc12 [Example 85, N-((2,3-dihydrobenzofuran-4-yl)methyl)-8-(4-fluoropyridin-3-yl)-[1,2,4]triazolo[4,3-c]pyrimidin-5-amine]	0.0333 µM
Fc1ccc2c(c1CNc1ncc(-c3ccnc(C(F)(F)F)c3)c3nncn13)CCO2 [Example 185, N-((5-fluoro-2,3-dihydrobenzofuran-4-yl)methyl)-8-(2-(trifluoromethyl)pyridin-4-yl)-[1,2,4]triazolo[4,3-c]pyrimidin-5-amine]	0.0468 µM
CC(O)c1ccc(-c2cnc(NCc3cccc4c3CCO4)n3cnnc23)cn1 (stereo not shown) [Example 84, 1-(5-(5-(((2,3-dihydrobenzofuran-4-yl)methyl)amino)-[1,2,4]triazolo[4,3-c]pyrimidin-8-yl)pyridin-2-yl)ethanol]	0.148 µM
Fc1ccc2c(c1CNc1ncc(-c3cnccc3Cl)c3nncn13)CCO2 [Example 124]	0.006 µM

The remaining compounds from weak to strong by IC50, led by results:

IC50	SMILES
0.285 µM	CN(C)CCN(C)C(=O)c1ccc(-c2cnc(NCc3cccc4c3CCO4)n3cnnc23)cn1 [Example 102, 5-(5-(((2,3-dihydrobenzofuran-4-yl)methyl)amino)-[1,2,4]triazolo[4,3-c]pyrimidin-8-yl)-N-(2-(dimethylamino)ethyl)-N-methylpicolinamide]
0.202 µM	OCCOc1ccc(-c2cnc(NCc3cccc4c3CCO4)n3cnnc23)cc1 [Example 38, 2-(4-(5-(((2,3-dihydrobenzofuran-4-yl)methyl)amino)-[1,2,4]triazolo[4,3-c]pyrimidin-8-yl)phenoxy)ethanol]
0.198 µM	CCOc1ccc(-c2cnc(NCc3cccc4c3CCO4)n3cnnc23)cn1 [Example 63, N-((2,3-dihydrobenzofuran-4-yl)methyl)-8-(6-ethoxypyridin-3-yl)-[1,2,4]triazolo[4,3-c]pyrimidin-5-amine]
0.124 µM	OCCN1CCN(c2ccc(-c3cnc(NCc4cccc5c4CCO5)n4cnnc34)cn2)CC1 [Example 110, 2-(4-(5-(5-(((2,3-dihydrobenzofuran-4-yl)methyl)amino)-[1,2,4]triazolo[4,3-c]pyrimidin-8-yl)pyridin-2-yl)piperazin-1-yl)ethanol]
0.0777 µM	Cc1cnc(C(F)(F)F)cc1-c1cnc(NCc2c(F)ccc3c2CCO3)n2cnnc12 [Example 184, N-((5-fluoro-2,3-dihydrobenzofuran-4-yl)methyl)-8-(5-methyl-2-(trifluoromethyl)pyridin-4-yl)-[1,2,4]triazolo[4,3-c]pyrimidin-5-amine]
0.0292 µM	Cc1cnc(Cl)cc1-c1cnc(NCc2c(F)ccc3c2CCO3)n2cnnc12 [Example 228, 8-(2-chloro-5-methylpyridin-4-yl)-N-((5-fluoro-2,3-dihydrobenzofuran-4-yl)methyl)-[1,2,4]triazolo[4,3-c]pyrimidin-5-amine]
0.0257 µM	Fc1ccccc1-c1cnc(NCc2c(F)ccc3c2CCO3)n2cnnc12 [Example 94, N-((5-fluoro-2,3-dihydrobenzofuran-4-yl)methyl)-8-(2-fluorophenyl)-[1,2,4]triazolo[4,3-c]pyrimidin-5-amine]
0.0179 µM	Cc1ncn(-c2cnc(NCc3c(F)ccc4c3CCO4)n3cnnc23)n1 [Example 238, N-((5-fluoro-2,3-dihydrobenzofuran-4-yl)methyl)-8-(3-methyl-1H-1,2,4-triazol-1-yl)-[1,2,4]triazolo[4,3-c]pyrimidin-5-amine]
0.0177 µM	Cc1ccncc1-c1cnc(NCc2c(F)ccc3c2CCO3)n2cnnc12 [Example 118, N-((5-fluoro-2,3-dihydrobenzofuran-4-yl)methyl)-8-(4-methylpyridin-3-yl)-[1,2,4]triazolo[4,3-c]pyrimidin-5-amine]
0.0167 µM	Fc1ccc2c(c1CNc1ncc(-c3cnccn3)c3nncn13)CCO2 [Example 205, N-((5-fluoro-2,3-dihydrobenzofuran-4-yl)methyl)-8-(pyrazin-2-yl)-[1,2,4]triazolo[4,3-c]pyrimidin-5-amine]
0.0091 µM	Cn1ncc(-c2cnc(NCc3c(F)ccc4c3CCO4)n3cnnc23)c1CO [Example 227, (4-(5-(((5-fluoro-2,3-dihydrobenzofuran-4-yl)methyl)amino)-[1,2,4]triazolo[4,3-c]pyrimidin-8-yl)-1-methyl-1H-pyrazol-5-yl)methanol]
0.0043 µM	COc1ccc(-c2cnc(NCc3c(F)ccc4c3CCO4)n3cnnc23)cn1 [Example 142, N-((5-fluoro-2,3-dihydrobenzofuran-4-yl)methyl)-8-(6-methoxypyridin-3-yl)-[1,2,4]triazolo[4,3-c]pyrimidin-5-amine]
